Results published in patent US20130012434A1, “NOVEL SPIRO IMIDAZOLONES AS GLUCAGON RECEPTOR ANTAGONISTS, COMPOSITIONS, AND METHODS FOR THEIR USE” (priority 2010, published 2013).
pIC50: −log10 of the molar value.

Molecular target: T1, recombinant human glucagon receptor (Homo sapiens, UniProt P47871)
T1 construct: expressed in transfected cells; host or cells: CHO cells
Experiment: Inhibition of glucagon-stimulated intracellular cAMP assay
Assay type: cell-based
Details: CHO cells expressing recombinant human glucagon receptor, stimulated with 300 pM glucagon, LANCE cAMP kit
Procedure: Inhibition of Glucagon-Stimulated Intracellular cAMP Assay
Chinese hamster ovary (CHO) cells expressing the recombinant human glucagon receptor were harvested with the aid of non-enzymatic cell dissociation solution (GIBCO 13151-014). The cells were then pelleted and suspended in the stimulation buffer (1×HBSS, 5 mM Hepes, 0.1% BSA, pH7.4 in presence of complete protease inhibitor and phosphodiesterase inhibitor). The adenylate cyclase assay was conducted following the LANCE cAMP Kit (Perkin Elmer, AD0262) instructions. Briefly, cells were preincubated with anti-cAMP antibody in the stimulation buffer with a final concentration of 3% DMSO for 30 minutes and then stimulated with 300 pM glucagon for 45 minutes. The reaction was stopped by incubating with the detection buffer containing Europium chelate of the Eu-SA/Biotin-cAMP tracer for 20 hours. The fluorescence intensity emitted from the assay was measured at 665 nm using PheraStar instruments. […] Standard cAMP concentrations were conducted concurrently for conversion of fluorescence signal to cAMP level. Data was analyzed using GraphPad Prism. IC50 values were calculated using non-linear regression analysis assuming single site competition. […] Some of the compounds of the invention shown in the examples measured less than about 5 μM in this assay; other examples measured less than about 500 nM; others less than about 100 nM. […]

T1 sequence (P47871 26-477): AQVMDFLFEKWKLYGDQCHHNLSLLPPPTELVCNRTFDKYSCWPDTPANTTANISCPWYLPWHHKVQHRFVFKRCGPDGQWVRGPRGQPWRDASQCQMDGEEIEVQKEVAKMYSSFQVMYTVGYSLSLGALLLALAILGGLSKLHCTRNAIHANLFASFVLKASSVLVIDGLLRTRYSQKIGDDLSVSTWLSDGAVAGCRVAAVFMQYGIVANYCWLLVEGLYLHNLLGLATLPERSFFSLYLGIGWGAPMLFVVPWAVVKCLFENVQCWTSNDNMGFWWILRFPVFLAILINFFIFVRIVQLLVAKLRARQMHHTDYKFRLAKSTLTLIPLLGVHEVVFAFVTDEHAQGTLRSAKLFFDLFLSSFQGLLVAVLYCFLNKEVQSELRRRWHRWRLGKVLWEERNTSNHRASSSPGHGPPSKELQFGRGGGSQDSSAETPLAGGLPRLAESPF

Structure (SMILES) | pIC50
CC(C)(C)CC[C@H](c1ccc(C(=O)NCCC(=O)O)cc1)N1C(=O)C(c2cccc(F)c2)=NC12CCC([Si](C)(C)C)CC2 (some centres unmarked) [Example 5.26] | 7.21
CC(C)(C)CCOc1cccc(C2=NC3(CCC(C(C)(C)C)CC3)N([C@H](CCC(C)(C)C)c3ccc(C(=O)NCc4nn[nH]n4)cc3)C2=O)c1 (some centres unmarked) [Example 5.69] | 7.66
